Test results: PubChem BioAssay (NCI)
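A five-concentration, 48-hour dose response in 96-well plates underlies each endpoint, interpolated linearly between surrounding concentrations. At the TGI there is no net growth.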

Tests used:
Test in all cases: NCI-60 cell line screen, 48 h
SF-295 CNS = system: SF-295 CNS
MALME-3M melanoma = system: MALME-3M melanoma
HT29 colon = system: HT29 colon
OVCAR-4 ovarian = system: OVCAR-4 ovarian
CAKI-1 renal = system: CAKI-1 renal
NCI-H460 lung = system: NCI-H460 lung
OVCAR-5 ovarian = system: OVCAR-5 ovarian
DMS 114 small cell lung = system: DMS 114 small cell lung
EKVX NSCLC = system: EKVX NSCLC
NCI-H522 lung = system: NCI-H522 lung
HOP-62 NSCLC = system: HOP-62 NSCLC
SK-MEL-28 melanoma = system: SK-MEL-28 melanoma
SNB-78 CNS = system: SNB-78 CNS
LOX IMVI melanoma = system: LOX IMVI melanoma
SN12C renal = system: SN12C renal
A549 NSCLC = system: A549 NSCLC
SF-268 CNS = system: SF-268 CNS
HL-60(TB) leukemia = system: HL-60(TB) leukemia
OVCAR-8 ovarian = system: OVCAR-8 ovarian
DLD-1 colon = system: DLD-1 colon
SK-MEL-2 melanoma = system: SK-MEL-2 melanoma
SNB-75 CNS = system: SNB-75 CNS
HCT-116 colon = system: HCT-116 colon
TK-10 renal = system: TK-10 renal
M14 melanoma = system: M14 melanoma
UO-31 renal = system: UO-31 renal
HCC-2998 colon = system: HCC-2998 colon
K-562 leukemia = system: K-562 leukemia
KM12 colon = system: KM12 colon
NCI-H226 lung = system: NCI-H226 lung
SK-MEL-5 melanoma = system: SK-MEL-5 melanoma
M19-MEL melanoma = system: M19-MEL melanoma
UACC-257 melanoma = system: UACC-257 melanoma
786-0 renal = system: 786-0 renal
SR leukemia = system: SR leukemia
XF 498 CNS = system: XF 498 CNS
SF-539 CNS = system: SF-539 CNS
SNB-19 CNS = system: SNB-19 CNS
MOLT-4 leukemia = system: MOLT-4 leukemia
HCT-15 colon = system: HCT-15 colon
COLO 205 colon = system: COLO 205 colon
NCI-H23 lung = system: NCI-H23 lung
RPMI-8226 leukemia = system: RPMI-8226 leukemia
SW-620 colon = system: SW-620 colon
ACHN renal = system: ACHN renal
CCRF-CEM leukemia = system: CCRF-CEM leukemia
DMS 273 small cell lung = system: DMS 273 small cell lung
HOP-18 NSCLC = system: HOP-18 NSCLC
OVCAR-3 ovarian = system: OVCAR-3 ovarian
HS 578T breast = system: HS 578T breast
UACC-62 melanoma = system: UACC-62 melanoma
A498 renal = system: A498 renal
U251 CNS = system: U251 CNS
MDA-MB-231 breast = system: MDA-MB-231 breast
T-47D breast = system: T-47D breast
RXF 393 renal = system: RXF 393 renal
MDA-N = system: MDA-N
PC-3 prostate = system: PC-3 prostate
DU-145 prostate = system: DU-145 prostate
MDA-MB-435 = system: MDA-MB-435
SK-OV-3 ovarian = system: SK-OV-3 ovarian
BT-549 breast = system: BT-549 breast
NCI/ADR-RES ovarian = system: NCI/ADR-RES ovarian
IGROV1 ovarian = system: IGROV1 ovarian
MCF7 breast = system: MCF7 breast
HOP-92 NSCLC = system: HOP-92 NSCLC

Measured: TGI

COc1cc(/C=C2\C(=O)N(C(=O)Cc3ccccc3)N=C2C)cc(OC)c1OC
not listed: HS 578T breast | UACC-62 melanoma | A498 renal | U251 CNS | MDA-MB-231 breast | T-47D breast | RXF 393 renal | MDA-N | PC-3 prostate | DU-145 prostate | MDA-MB-435 | SK-OV-3 ovarian | BT-549 breast | NCI/ADR-RES ovarian | IGROV1 ovarian | MCF7 breast | HOP-92 NSCLC
> 100 µM: all other assays above

O=C(Nc1ccccc1)c1cc(S(=O)(=O)Nc2n[nH]c(=O)n2-c2ccccc2)c(S)cc1Cl
not listed: SF-295 CNS | DMS 114 small cell lung | HOP-62 NSCLC | SNB-78 CNS | DLD-1 colon | M19-MEL melanoma | XF 498 CNS | NCI-H23 lung | ACHN renal | CCRF-CEM leukemia | DMS 273 small cell lung | HOP-18 NSCLC
> 100 µM: all other assays above
